Patent US20250074888A1, “PYRIDAZINE DERIVATIVES AS MODULATORS OF NLRP3 INFLAMMASOME AND RELATED METHODS” (Neumora Therapeutics, Inc., priority 2021, published 2025)

Experiments:
[1] = biological target: NLRP3 inflammasome (Homo sapiens, UniProt Q96P20); experiment: NLRP3 inflammasome activation in THP1 macrophages (LPS priming, nigericin), IL-1β AlphaLISA; assay type: cell-based; details: PMA-differentiated THP1, LPS 20 ng/ml 3 hrs, compound 1 hr, Nigericin 6.7 uM 3 hrs, supernatant
[2] = test system: IL-6; experiment: IL-6 release from LPS-primed, nigericin-treated THP1 macrophages, Hu IL-6 AlphaLISA; assay type: cell-based; details: Homo sapiens, THP-1; PMA-differentiated THP1, LPS 20 ng/ml 3 hrs, compound 1 hr, Nigericin 6.7 uM 3 hrs, supernatant

Chain of NLRP3 inflammasome (Q96P20 whole entry): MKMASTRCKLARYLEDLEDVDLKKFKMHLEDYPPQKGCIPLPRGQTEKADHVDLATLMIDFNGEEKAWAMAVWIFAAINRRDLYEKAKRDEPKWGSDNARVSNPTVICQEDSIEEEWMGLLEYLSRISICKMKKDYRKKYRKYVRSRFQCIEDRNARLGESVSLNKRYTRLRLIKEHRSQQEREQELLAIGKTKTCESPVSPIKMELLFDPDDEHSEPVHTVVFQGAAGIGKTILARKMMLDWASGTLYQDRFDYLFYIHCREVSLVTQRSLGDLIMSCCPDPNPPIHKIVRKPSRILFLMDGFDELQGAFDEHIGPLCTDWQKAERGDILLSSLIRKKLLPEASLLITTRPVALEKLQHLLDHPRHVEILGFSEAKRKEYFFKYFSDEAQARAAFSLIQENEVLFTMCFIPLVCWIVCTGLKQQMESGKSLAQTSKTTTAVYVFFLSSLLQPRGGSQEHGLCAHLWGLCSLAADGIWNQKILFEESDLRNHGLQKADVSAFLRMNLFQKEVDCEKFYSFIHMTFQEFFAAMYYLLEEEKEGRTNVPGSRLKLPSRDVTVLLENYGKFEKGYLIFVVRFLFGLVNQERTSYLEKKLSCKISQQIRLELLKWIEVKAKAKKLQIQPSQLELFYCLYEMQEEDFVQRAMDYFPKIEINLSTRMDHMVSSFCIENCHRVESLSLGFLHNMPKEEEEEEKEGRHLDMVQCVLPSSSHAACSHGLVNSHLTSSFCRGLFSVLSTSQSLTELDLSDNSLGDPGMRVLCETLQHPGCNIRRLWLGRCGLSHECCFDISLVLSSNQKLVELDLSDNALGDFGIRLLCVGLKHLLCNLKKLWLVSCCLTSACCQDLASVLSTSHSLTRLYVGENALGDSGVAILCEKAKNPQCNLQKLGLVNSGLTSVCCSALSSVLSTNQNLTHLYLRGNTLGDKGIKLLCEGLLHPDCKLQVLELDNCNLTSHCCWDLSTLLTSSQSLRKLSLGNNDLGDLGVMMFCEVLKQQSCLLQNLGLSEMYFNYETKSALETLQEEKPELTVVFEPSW

| IC50 [1] | IC50 [2] | Compound |
| --- | --- | --- |
| ≤ 10 nM | 5000 to 10000 nM | Cc1cc(N[C@@H]2CCCN(C)C2)nnc1-c1ccc(Cl)cc1C(F)F [compound 174] |
| ≤ 10 nM | > 10000 nM | Cc1cc(-c2ccc(Cl)cc2C(F)F)nnc1N[C@@H]1CCCN(C)C1 [compound 175] |
| 50 to 100 nM | > 10000 nM | Cc1cc(N[C@@H]2CCCCN(C)C2)nnc1-c1ccc(C(F)(F)F)cc1 [compound 176] |
| 100 to 500 nM | > 10000 nM | Cc1cc(O[C@@H]2CCCN(C)C2)nnc1-c1ccc(C(F)(F)F)cc1 [compound 177, (R)-4-methyl-6-((1-methylpiperidin-3-yl)oxy)-3-(4-(trifluoromethyl)phenyl)pyridazine] |
| > 1000 nM | 1000 to 5000 nM | Cc1cc(-c2ccc(C(F)(F)F)cc2)nnc1O[C@@H]1CCCN(C)C1 [compound 178] |
| > 1000 nM | > 10000 nM | Cc1cc(O[C@@H]2CCCN(C)C2)nnc1-c1ccc(F)cc1 [compound 179] |
| > 1000 nM | > 10000 nM | Cc1cc(-c2ccc(F)cc2)nnc1O[C@@H]1CCCN(C)C1 [compound 180] |
| 500 to 1000 nM | ≤ 1000 nM | Cc1cc(Cl)ccc1-c1nnc(O[C@@H]2CCCN(C)C2)cc1C [compound 181] |
| 50 to 100 nM | > 10000 nM | Cc1cc(-c2ccc(C(F)(F)F)cc2)nnc1N[C@@H]1CCN(C)C1 [compound 182] |
| 100 to 500 nM | > 10000 nM | Cc1cc(N[C@@H]2CCN(C)C2)nnc1-c1ccc(F)cc1 [compound 183] |
| > 1000 nM | 5000 to 10000 nM | Cc1cc(N(C)[C@@H]2CCN(C)C2)nnc1-c1ccc(F)cc1 [compound 184] |
| > 1000 nM | 1000 to 5000 nM | Cc1cc(N(C)[C@@H]2CCN(C)C2)nnc1-c1ccc(C(F)(F)F)cc1 [compound 185] |
| ≤ 10 nM | > 10000 nM | Cc1cc(N[C@@H]2CCN(C)C2)nnc1-c1ccc(C(F)(F)F)cc1 [compound 186] |
| > 1000 nM | > 10000 nM | Cc1cc(Cl)ccc1-c1nnc(N[C@@H]2CCN(C)C2)cc1C [compound 187] |
| > 1000 nM | > 10000 nM | Cc1cccc(C(F)F)c1-c1ccc(N[C@@H]2CCCN(C)C2)nn1 [compound 189] |
| 50 to 100 nM | > 10000 nM | Cc1cc(N[C@@H]2C[C@@H](F)CN(C(C)C)C2)nnc1-c1ccc(F)cc1 [compound 190] |

| IC50 [1] | IC50 [2] | Compound |
| --- | --- | --- |
| 10 to 50 nM | > 10000 nM | Cc1c(-c2ccc(C(F)(F)F)cc2)nnc(N[C@@H]2CCCN(C)C2)c1O [compound 191] |
| ≤ 10 nM | > 10000 nM | CN1CCC[C@@H](Nc2cc(C(F)(F)F)c(-c3ccc(F)cc3)nn2)C1 [compound 192] |
| ≤ 10 nM | 5000 to 10000 nM | Cc1cc(N(C2CC2)[C@@H]2CCCN(C)C2)nnc1-c1ccc(C(F)(F)F)cc1 [compound 193] |
| ≤ 10 nM | > 10000 nM | CN1CCC[C@@H](Nc2cc(C(F)(F)F)c(-c3ccc(Cl)cc3)nn2)C1 [compound 194] |
| 10 to 50 nM | > 10000 nM | CCN1CCC[C@@H](Nc2cc(C(F)(F)F)c(-c3ccc(F)cc3)nn2)C1 [compound 195] |
| 500 to 1000 nM | 1000 to 5000 nM | CN1CCC[C@@H](Nc2nnc(-c3ccc(Cl)cc3)cc2C(F)(F)F)C1 [compound 196] |
| > 1000 nM | > 10000 nM | CCN1CCC[C@@H](Nc2nnc(-c3ccc(F)cc3)cc2C(F)(F)F)C1 [compound 197] |
| 500 to 1000 nM | > 10000 nM | Cc1cc(C(F)(F)F)ccc1-c1nnc(N[C@@H]2CCCN(C)C2)cc1O [compound 198] |
| 50 to 100 nM | > 10000 nM | Cc1cc(C(F)F)ccc1-c1ccc(N[C@@H]2CCCN(C)C2)nn1 [compound 199] |
| ≤ 10 nM | > 10000 nM | Cc1cc(Cl)ccc1-c1nnc(N[C@@H]2CCCN(C(C)C)C2)cc1C [compound 200] |
| ≤ 10 nM | > 10000 nM | CCN1CCC[C@@H](Nc2cc(C)c(-c3ccc(Cl)cc3C)nn2)C1 [compound 201] |
| 100 to 500 nM | > 10000 nM | Cc1cc(N(C)[C@@H]2CCCN(C)C2)nnc1-c1ccc(Cl)cc1 [compound 202] |
| 10 to 50 nM | > 10000 nM | Cc1cc(N[C@@H]2CCCN(C)C2)nnc1-c1ccc(F)cc1C(F)F [compound 203] |
| 500 to 1000 nM | > 10000 nM | Cc1cc(Cl)ccc1-c1nnc(N(C)[C@@H]2CCCN(C)C2)cc1C [compound 204] |
| 100 to 500 nM | > 10000 nM | Cc1cc(O[C@@H]2CCCN(C)C2)nnc1-c1ccc(Cl)cc1 [compound 210] |
